Values of other authors in article PMC12154284, “FYCO1 Peptide Analogs: Design and Characterization of Autophagy Inhibitors as Co-Adjuvants in Taxane Chemotherapy of Prostate Cancer” (International Journal of Molecular Sciences, 2025).

Biological target: LC3B
Details: eicosapeptide, ref [30]; cited from earlier work
Source text: This small protein sequence consists of four conserved residues that can be succinctly represented as a sequence of “X0–X1–X2–X3”, where X0 represents an aromatic residue (Trp/Phe/Tyr), X1 and X2 can denote any amino acids (often acidic or hydrophobic residues), and X3 signifies a large hydrophobic residue such as Leu, Val, or Ile. Consequently, the LIR domain can be considered a promising starting poi ... || To measure the dissociation constants (Kd) of the peptides on human recombinant His-tagged LC3B protein, MST experiments were carried out on a Monolith NT.115^Pico instrument (see the Materials and Methods section for details). […] The electrostatic interactions between the new peptides and LC3B’s positively charged surface—defined by the residues K49, K51, R69, and R70—correlated with low predicted ΔG* values, explaining their improved ...

## RDDAV2DIITDEEαCQIQEW [Comb1]
  Kd: 120 nM
